Reference: patent US6001808A, “Method of treating herpes virus infections with spermostatic gramicidin” (Metatron, Inc., priority 1997, dated 1999)
≈ marks a conversion by molar mass, not a printed value. Read-outs that look alike come from different tables or passages of the source.

Key:
sperm motility = experiment: 2-minute sperm immobilization assay (sperm motility by CASA); type: cell-based, human; conditions: for times higher dose required to achieve the effect of gramicidin: sperm motility, compounds alone
Protocol: The tests were conducted on unprocessed semen samples. […] Ejaculate samples from 3 normospermic volunteers were collected after 2-4 days of abstinence and allowed to liquefy for 20 minutes at 37° C. The sperm count was within the range of 60-240×10^6 cells/ml and the percentage of motile cells was over 50%. Serial dilutions of gramicidin, nonoxynol-9, EDTA or combinations thereof were mixed with fresh semen and sperm count, motility and morphology were assessed using computer-assisted semen analysis (CASA). Each 50 mcl sample of semen was mixed in a glass tube with predetermined concentration of test compounds, vortexed for 10 seconds, and left at room temperature for 2 minutes. Thereupon, a small 10 mcl portion of the sample was placed on a glass slide and motility of the sperm was evaluated automatically.

[1] = system: sperm penetration into lamb cervical mucus; experiment: Cervical mucus penetration assay; type: cell-based, human; conditions: for motility of spermatozoa found in drug-pretreated mucus: at the time of observation, N9 even after 1 hour of incubation
Protocol: Glass capillary tubes (1 mm×100 mm) were filled with freshly collected lamb cervical mucus and placed vertically into solutions with test compounds as described earlier. After 30 minutes, incubation to allow the diffusion of drugs into mucus, the mucus-containing tubes were dipped vertically into cuvettes with the semen. After 15 minutes, the sperm that moved upwards from the bottom of the capillary tube was evaluated under microscope for traveled distance and the percent of motile sperm.

HSV-1 = experiment: HSV antigen ELISA, viral yield in WI-38 fibroblasts at 24 hours; type: cell-based, herpes simplex virus type 1 (HSV-1)
Protocol: (§1) The effect of gramicidin on the replication of herpes simplex viruses (HSV) type 1 and 2 has been examined and compared to the effect of acyclovir--the nucleoside analog used in the prior art for the therapy of herpes virus infections. Human WI-38 fibroblasts were inoculated with either type of HSV in the presence of serial dilutions of gramicidin (10-0.001 mcg/ml) and reduction in viral yield was measured at 24 hours by ELISA. […] The average 50% inhibitory dose (IC50) of gramicidin against 3 HSV-1 and 4 HSV-2 solates was equal to 0.3 mcg/ml and was similar to the efficacy of the anti-HSV agent acyclovir (ACV). The IC50 of a single dose of gramicidin required to protect WI-38 from cytolytic effect of HSV was 10 mcg/ml at day 5 postinfection. Importantly, gramicidin suppressed the replication of ACV-resistant thymidine kinase and polymerase HSV mutants at doses effective against ACV-sensitive strains.
(§2) Human embryonic lung fibroblasts WI-38 (CCL-75, ATCC, Rockville, Md.) were grown in RPMI medium 1640 with 10% FBS, L-glutamine, and penicillin/streptomycin (GIBCO, Grand Island, N.Y.) at 37° C. with 5% CO2 air atmosphere. Herpes viruses that were tested for susceptibility to gramicidin are own in Table 1.
(§3) One day prior to the assay WI-38 monolayers were trypsinized with 0.25% trypsin/EDTA (Sigma) and plated in 96-well microculture plates at seeding concentration 10^5 cells per well. The next day triplicate wells of WI-38 monolayers were exposed to serial 10-fold dilutions (range 10 mcg/ml-1 ng/ml) of gramicidin or ACV. Positive control wells and drug-exposed wells containing 180 mcl of medium received 20 mcl ahquots of HSV-1 or HSV-2 preparation at 5,000 TCID50 per well and were incubated further for 24 hours. Thereupon, the supernatants from infected WI-38 fibroblasts were collected and levels of HSV antigen were examined by ELISA (Premier™ HSV, Meridian Diagnostics Inc., Cincinnati, Ohio) according to the manufacturer's instructions. The primary antibody supplied with this ELISA kit recognizes HSV antigens of both virus types. The amount of HSV antigen, corresponding to levels in the inoculum, was subtracted as a blank value from experimental values reached upon virus propagation in host WI-38 cells. IC50 doses were estimated from dose-response curves plotted as a function of log concentrations of drugs.

HSV-2 = experiment: as above; type: cell-based, herpes simplex virus type 2 (HSV-2)
Protocol: as §1, §2, §3

HSV type 1 and 2 = experiment: HSV antigen ELISA, summary over HSV-1 and HSV-2 isolates; type: cell-based, herpes simplex viruses (HSV) type 1 and 2
VR-734 strain of HSV-2 = experiment: Protection of WI-38 fibroblasts against cytolytic action of HSV, MTS assay day 5; type: cell-based, herpes simplex virus type 2 (HSV-2); conditions: day 5 postinfection, single dose
Protocol: Inoculated WI-38 cells were grown in the presence of ten-fold dilutions of gramicidin or ACV for five days until all untreated control cells were dead as a result of lytic HSV infection. The culture wells were then exposed for 4 hours to MTS tetrasolium salt and phenazine methosulfate preparation (Cell Titer^96, Promega, Madison, Wis.) and the optical density of formazan dye was measured in a plate reader at 450 nm with reference filter at 620 nm. The obtained values were then compared to both the absorbance values of dead cells and optical density of uninfected viable cells grown in the same plate. The percent of surviving WI-38 cells in drug-protected cultures was determined from dose-response curves as a function of log concentrations of test drugs.

WI-38 cells [2] = experiment: Viability of WI-38 cells by MTS assay
Protocol: (§4) The effect of test compounds on cell viability was measured by two colorimetric assays as follows. WI-38 cells were grown in the presence or absence of ten-fold dilutions of gramicidin or ACV for two days. The cells were then exposed to MTS/phenazine methosulfate as described above. The conditions for the second, lactate dehydrogenase (LDH) assay, were similar to the MTS test except that a different cell viability parameter was measured. This assay quantitatively measures the stable cytosolic enzyme, LDH, that is released upon cell lysis in much the same way as ^51 Cr is released in radioactive assays. The results were evaluated using an enzymatic assay which measures the conversion of INT tetrazolium salt into red formazan product (CytoTox^96, Promega, Madison, Wis.). A standard 96-well plate reader was set to record wavelength absorbance at 490 nm. The residual LDH activity present in incubation medium was subtracted as a blank value. The amount of LDH released from drug-exposed cells was compared to untreated and detergent-lysed controls according to the formula provided by the manufacturer.

WI-38 cells [3] = experiment: LDH release from drug-exposed WI-38 cells; conditions: 2 days of treatment, highest 10 mcg dose
Protocol: as §4

sperm viability [4] = experiment: Tetrazolium dye reduction (XTT) assay on sperm; type: cell-based, human; conditions: highest 100 mcg/ml concentration
Protocol: The spermatozoa from fertile donors are capable of nitroblue tetrazolium reduction in a same way as the fibroblasts in Example 1. Briefly, sperm were suspended in a 96-well plate in the presence of serial ten-fold dilutions of test compounds and each 180 mcl well received 20 mcl of XTT solution at final concentration 1 mg/ml of XTT (Sigma) with 1% w/v of PMS (Aldrich, Milwaukee, Wis.). Drug untreated spermatozoa served as positive viability references.
(§5) These two methods, XTT and LDH, were used simultaneously on the same semen samples to determine the toxic effect of gramicidin. Both quantitative tests, measuring two independent indicators of sperm viability, indicate that gramicidin is a potent nontoxic agent with antifertility potential.

sperm viability [5] = experiment: Lactate dehydrogenase (LDH) release assay on sperm; type: cell-based, human; conditions: high doses, serial dilutions 100 mcg-1 ng per ml
Excerpt: The disruption of the sperm membrane by N9-like detergents such as Triton X-100 or by gramicidin S leads to release of intracellular LDH isoenzymes or membrane-associated LDH-X, and an increase in LDH activity can be measured by assaying the supernatant of sperm suspension. The increase in LDH activity can be thus used as an indicator of drug toxicity since cytosolic LDH is released upon cell lysis in the same way as 51Cr is released in radioactive assays. The assay setting is similar to XTT assay and released LDH is quantitated with commercial enzymatic assay (CytoTox96, Promega, Madison, Wis.). An ordinary plate reader was used to record visible wavelength absorbance at 490 nm. The residual LDH activity usually present in seminal plasma or in incubation medium was subtracted as blank values and the % of toxicity was determined as directed by manufacturer's instruction. This assay is very sensitive and results are obtained within 30 minutes.
as §5

HIV = conditions: 10 ng/ml; cited from earlier work
[6] = 0% EDTA, 2 minutes, unprocessed semen
[7] = 0.1% EDTA, 2 minutes, unprocessed semen

For `O=C(O)CN(CCN(CC(=O)O)CC(=O)O)CC(=O)O` [EDTA, ethylenediaminetetraacetic acid], which “IC100 on sperm motility” value (sperm motility; [6]) is on record?
The value was 5,000 mcg/ml.

And the “times higher dose required to achieve the effect of gramicidin” value (sperm motility)?
Its value is no less than 1250 times.

And the “IC100 in cervical mucus penetration assay” value ([1]; 0% EDTA)?
The value was 1,200 mcg/ml.

What does the source list for gramicidin D?
IC50 by HSV antigen ELISA (HSV-1; HSV type 1 strain DM2.1, TK-): 0.3 µg/mL; IC50 by HSV antigen ELISA (HSV-1; HSV type 1 strain KOS, ACV-sensitive): 0.2 µg/mL; IC50 by HSV antigen ELISA (HSV-1; HSV type 1 strain PAAr, Polymerase-): 0.4 µg/mL; IC50 by HSV antigen ELISA (HSV-2; HSV type 2 strain 186, ACV-sensitive): 0.1 µg/mL; IC50 by HSV antigen ELISA (HSV-2; HSV type 2 strain 8708, TK altered): 0.3 µg/mL; IC50 by HSV antigen ELISA (HSV-2; HSV type 2 strain Kost, TK altered): 0.2 µg/mL; IC50 by HSV antigen ELISA (HSV-2; HSV type 2 strain VR-734, ACV-sensitive): 0.3 µg/mL; IC50 on HSV replication by antigen ELISA (HSV-2; VR-734 strain of HSV-2, WI-38 cells, day 1 postinfection): 0.3 µg/mL; average 50% inhibitory dose (IC50) (HSV type 1 and 2; average against 3 HSV-1 and 4 HSV-2 isolates): 0.3 µg/mL; IC50, reduction in viral yield by ELISA (HSV type 1 and 2; both HSV type 1 and 2, 24 hours, range over isolates): 0.1 to 0.4 µg/mL; IC50 for protection of WI-38 from cytolytic effect of HSV (VR-734 strain of HSV-2): 10 µg/mL; effect on viability (metabolic activity) of WI-38 cells (WI-38 cells [2]; MTS, day 2, highest tested 10 mcg/ml dose): no significant effect; toxicity to host WI-38 cells (WI-38 cells [2]; at concentrations that exceeded IC50 by at least two orders of magnitude): not toxic; excess LDH released, relative to baseline of untreated controls (WI-38 cells [3]): ≤ 15%; IC100 on sperm motility (sperm motility; [6]): 4 µg/mL; IC100 on sperm motility (sperm motility; [7]): 0.01 µg/mL; reversibility of effect on sperm motility (sperm motility; after washing sperm and resuspending in Earle's balanced salt solution): irreversible effect; times more potent than N9 (sperm motility; sperm immobilization, without EDTA): 50 times; IC100 on sperm motility (sperm motility; with 0.1% of EDTA): 0.01 µg/mL; IC100 in cervical mucus penetration assay ([1]; 0% EDTA): 3 µg/mL; IC100 in cervical mucus penetration assay ([1]; 0.1% EDTA): 0.001 µg/mL; motility of spermatozoa found in drug-pretreated mucus [1]: immotile; concentration that completely prevented penetration of sperm into mucus ([1]; with 0.1% of EDTA): 1 ng/mi; effect on mitochondrial hydrogenases of sperm (XTT) (sperm viability [4]): no effect; effect on LDH release from sperm (sperm viability [5]): negligible; activity against lab strains and clinical isolates of HIV (HIV): active

For `Nc1nc2c(ncn2COCCO)c(=O)[nH]1` [Acyclovir, [2-hydroxyethoxymethyl]guanine], which IC50 (HSV-1; Human alphaherpesvirus 1, WI-38, read-out: IC50 by HSV antigen ELISA, HSV type 1 strain DM2.1, TK-) is on record?
The IC50 was 77.3 µg/mL (≈ 343 µM).

And the IC50 (HSV-1; Human alphaherpesvirus 1, WI-38, read-out: IC50 by HSV antigen ELISA, HSV type 1 strain KOS, ACV-sensitive)?
The IC50 was 0.4 µg/mL (≈ 1.78 µM).

And the IC50 (HSV-1; Human alphaherpesvirus 1, WI-38, read-out: IC50 by HSV antigen ELISA, HSV type 1 strain PAAr, Polymerase-)?
Its IC50 is 52.4 µg/mL (≈ 233 µM).

What about the IC50 (HSV-2; Human alphaherpesvirus 2, WI-38, 24 h, read-out: IC50 on HSV replication by antigen ELISA, VR-734 strain of HSV-2, WI-38 cells, day 1 postinfection) of the same compound?
The IC50 was 0.2 µg/mL (≈ 0.888 µM).

What about the IC50 (HSV-2; Human alphaherpesvirus 2, WI-38, read-out: IC50 by HSV antigen ELISA, HSV type 2 strain 186, ACV-sensitive) of the same compound?
Its IC50 is 0.1 µg/mL (≈ 0.444 µM).

What about the IC50 (HSV-2; Human alphaherpesvirus 2, WI-38, read-out: IC50 by HSV antigen ELISA, HSV type 2 strain 8708, TK altered) of the same compound?
Its IC50 is 9.9 µg/mL (≈ 44 µM).

And the IC50 (HSV-2; Human alphaherpesvirus 2, WI-38, read-out: IC50 by HSV antigen ELISA, HSV type 2 strain Kost, TK altered)?
Its IC50 is 15.8 µg/mL (≈ 70.2 µM).

And the IC50 (HSV-2; Human alphaherpesvirus 2, WI-38, read-out: IC50 by HSV antigen ELISA, HSV type 2 strain VR-734, ACV-sensitive)?
Its IC50 is 0.2 µg/mL (≈ 0.888 µM).

What about the IC50 (VR-734 strain of HSV-2; Human alphaherpesvirus 2, WI-38, 120 h, read-out: IC50 for protection of WI-38 from cytolytic effect of HSV) of the same compound?
Its IC50 is 0.2 µg/mL (≈ 0.888 µM).

What about the “toxicity to host WI-38 cells” value (WI-38 cells [2]) of the same compound?
Its value is “not toxic”.

Which results are given for `CCCCCCCCCc1ccc(OCCOCCOCCOCCOCCOCCOCCOCCOCCO)cc1` [Nonoxynol-9, nonoxynol-9]?
enhancement in activity upon combination with EDTA (sperm motility): less than a two-fold enhancement; IC100 on sperm motility (sperm motility; [6]): 200 µg/mL; IC100 on sperm motility (sperm motility; [7]): 125 µg/mL; effect on sperm motility (sperm motility; at 4 mcg/ml, 2 minutes): no effect; times higher dose required to achieve the effect of gramicidin (sperm motility): At least 50 times; IC100 in cervical mucus penetration assay ([1]; 0% EDTA, no IC100 at the highest tested dose): > 1000 µg/mL; IC100 in cervical mucus penetration assay ([1]; 0.1% EDTA): 100 µg/mL; IC50 ([1]; Homo sapiens, Sperm, 0% EDTA, footnote: value represents IC50): 900 µg/mL (≈ 1460 µM); motility of spermatozoa found in drug-pretreated mucus [1]: retained motility
